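Cultured in 96-well plates, cells were exposed to test compound for 48 hours across five concentrations. TGI is the concentration that stops growth completely.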
Assays:
Test in all cases: NCI-60 cell line screen, 48 h
DLD-1 colon = tested on: DLD-1 colon
DMS 114 small cell lung = tested on: DMS 114 small cell lung
HOP-18 NSCLC = tested on: HOP-18 NSCLC
KM20L2 colon = tested on: KM20L2 colon
LXFL 529 NSCLC = tested on: LXFL 529 NSCLC
M19-MEL melanoma = tested on: M19-MEL melanoma
RXF-631 renal = tested on: RXF-631 renal
SNB-78 CNS = tested on: SNB-78 CNS
XF 498 CNS = tested on: XF 498 CNS

Compound	TGI (DLD-1 colon)	TGI (DMS 114 small cell lung)	TGI (HOP-18 NSCLC)	TGI (KM20L2 colon)	TGI (LXFL 529 NSCLC)	TGI (M19-MEL melanoma)	TGI (RXF-631 renal)	TGI (SNB-78 CNS)	TGI (XF 498 CNS)
COc1ccc(-c2cc(=O)c3cc(Cl)ccc3[nH]2)cc1	> 100 µM	> 100 µM	> 100 µM	> 100 µM	> 100 µM	> 100 µM	> 100 µM	> 100 µM	> 100 µM
CSc1nc(NC2OCC(OC(C)=O)C(OC(C)=O)C2OC(C)=O)c2c(n1)OCC2=O (stereo not drawn)	> 100 µM	> 100 µM		> 100 µM	> 100 µM	> 100 µM		> 100 µM	
CCc1ccc(Cc2ccc(CC)c(NC(=O)C(=O)C3NC(=S)NC3=O)c2CC)c(CC)c1NC(=O)C(=O)C1NC(=S)NC1=O (stereo not drawn)	> 100 µM			> 100 µM	> 100 µM	> 100 µM	> 100 µM	> 100 µM	
O=C(O[C@H]1[C@@H]2C=CO[C@@H](OC3OC(CO)C(O)C(O)C3O)[C@@H]2[C@@]2(CO)O[C@@H]12)c1ccc(O)c(O)c1 (stereo partly drawn)	> 100 µM			> 100 µM	> 100 µM	> 100 µM		> 100 µM	> 100 µM
N#Cc1ccccc1NC(=O)C(=O)C(C(=O)c1ccncc1)C1OC(=O)c2ccccc21 (stereo not drawn)	> 100 µM	> 100 µM	> 100 µM	> 100 µM	> 100 µM	> 100 µM	> 100 µM	> 100 µM	> 100 µM
CN/N=C(\C(=O)Nc1ccc(C(F)(F)F)cc1[N+](=O)[O-])C(c1cnc2ccc([N+](=O)[O-])cc2n1)[N+](=O)[O-] (stereo not drawn)	> 100 µM	> 100 µM			> 100 µM	> 100 µM		> 100 µM	
Cc1nc(-n2nc(-c3ccccc3)cc2-c2ccccc2)sc1C(=O)/C=C/c1ccc([N+](=O)[O-])cc1	36.2 µM		> 100 µM	> 100 µM		98.9 µM	> 100 µM	> 100 µM	
C=CCCCN1CCCCC1=S	> 100 µM	> 100 µM	> 100 µM	> 100 µM		> 100 µM	> 100 µM		> 100 µM
CC(C)(C)OC(=O)N1CC(C)(C)N2C(=O)C3(CCCO3)C12 (stereo not drawn)	> 100 µM	> 100 µM	> 100 µM	> 100 µM	> 100 µM	> 100 µM		> 100 µM	
CC1SC2=NC3=C(c4ccccc4C3=O)C(c3ccccc3Cl)N2C1=O (stereo not drawn)	> 100 µM	> 100 µM		> 100 µM	> 100 µM	> 100 µM	> 100 µM		> 100 µM
N#Cc1ccc(OCCSCCCCCCCCCCSCCOc2ccc(C#N)cc2)cc1		> 100 µM	> 100 µM	> 100 µM	> 100 µM	> 100 µM		> 100 µM	
Nc1ccn(CCOC(c2ccccc2)P(=O)(O)O)c(=O)n1 (stereo not drawn)	> 100 µM	> 100 µM		> 100 µM	> 100 µM	> 100 µM		> 100 µM	> 100 µM
C#CC(C)(C)OCCCCOc1cc(O)c2c(=O)c3ccccc3n(C)c2c1	> 100 µM	> 100 µM	> 100 µM	> 100 µM	> 100 µM	> 100 µM		> 100 µM	> 100 µM
Cc1cc2c(=O)c(C)n[nH]c2c(C#N)c1C	> 100 µM		> 100 µM	> 100 µM	> 100 µM	> 100 µM	> 100 µM		> 100 µM
COC(=O)/C(=N\NC(N)=O)C(C#N)c1ccccc1 (stereo not drawn)	> 100 µM	> 100 µM	> 100 µM	> 100 µM	> 100 µM	> 100 µM		> 100 µM	> 100 µM
Cn1ccc(=NS(=O)(=O)c2ccccc2)cc1	> 100 µM	> 100 µM	> 100 µM	> 100 µM	> 100 µM	> 100 µM	> 100 µM	> 100 µM	> 100 µM
O=c1[nH]nc(CNc2ccc(Cl)cc2Cl)c2ccccc12	90.6 µM	37.1 µM	54.4 µM	75.2 µM	40.1 µM	> 100 µM	> 100 µM	> 100 µM	
CN1N=C2c3ccccc3OC(c3ccccc3)[C@H]2C1c1ccccc1 (stereo partly drawn)	> 100 µM	> 100 µM	> 100 µM	> 100 µM	> 100 µM	> 100 µM		> 100 µM	> 100 µM
CC(C)c1cccc(C(C)C)c1NC(=O)C(=O)C1CCC2=C(Sc3ccccc3N2)C1=O (stereo not drawn)	> 100 µM	> 100 µM	> 100 µM	> 100 µM	> 100 µM	> 100 µM	> 100 µM	> 100 µM	
COc1cccc(C=O)c1[O-].COc1cccc(C=O)c1[O-].[Zn+2]	> 100 µM	> 100 µM	> 100 µM	> 100 µM	> 100 µM	98.6 µM		> 100 µM	
O=[N+]([O-])c1cccc(C2=NN(c3ccccc3)C3c4ccccc4OCC23)c1 (stereo not drawn)	> 100 µM	> 100 µM	> 100 µM	> 100 µM	> 100 µM	> 100 µM	> 100 µM	> 100 µM	> 100 µM
CO/N=C(/C(=O)Nc1c[n+](CC(=O)[O-])cs1)c1csc(N)n1	> 100 µM		> 100 µM	> 100 µM	> 100 µM			> 100 µM	> 100 µM
O=c1c(C(c2ccc([N+](=O)[O-])cc2)c2c(O)c3ccccc3n(-c3ccccc3)c2=O)c(O)c2ccccc2n1-c1ccccc1	> 100 µM	73.5 µM	9.08 µM	> 100 µM	54.7 µM	> 100 µM	44.6 µM	> 100 µM	58.4 µM
O=C(CC1(O)C(=O)Nc2ccc([N+](=O)[O-])cc21)c1ccncc1 (stereo not drawn)	> 100 µM	82.8 µM	> 100 µM	> 100 µM		63.1 µM	54.7 µM	> 100 µM	34.2 µM
CC(C)(CCl)NC(=O)c1cccc(C(=O)NC(C)(C)CCl)n1	> 100 µM	> 100 µM		> 100 µM	> 100 µM	> 100 µM	> 100 µM	> 100 µM	
CC12C3CC4C5CC(C(C53)[C@@H]1NCc1ccccc1)C42 (stereo partly drawn)	> 100 µM	> 100 µM	> 100 µM	> 100 µM	> 100 µM		> 100 µM	> 100 µM	> 100 µM
Cc1cccc(N=Cc2ccc(N(CCC#N)S(=O)(=O)c3ccccc3)cc2C)c1	> 100 µM	> 100 µM		> 100 µM	> 100 µM	> 100 µM	> 100 µM		> 100 µM
O=C1NC(=S)NC(=O)C1=CC1CC1	> 100 µM	> 100 µM	> 100 µM	> 100 µM	> 100 µM	> 100 µM		> 100 µM	> 100 µM
CCCCCCCC(=O)OC[C@H](C[As](=O)(O)O)OC(=O)CCCCCCC	28 µM	19.5 µM	49.2 µM	30.2 µM	21.7 µM	27.2 µM		44.3 µM	
